In ChEMBL document CHEMBL5729324, “Aromatic heterocyclic substituted olefin compound, preparation method for same, pharmaceutical composition of same, and applications thereof” (2022):

Target: T1, TGF-beta receptor type-1 (Homo sapiens, UniProt P36897)
T1 sequence (P36897 whole entry): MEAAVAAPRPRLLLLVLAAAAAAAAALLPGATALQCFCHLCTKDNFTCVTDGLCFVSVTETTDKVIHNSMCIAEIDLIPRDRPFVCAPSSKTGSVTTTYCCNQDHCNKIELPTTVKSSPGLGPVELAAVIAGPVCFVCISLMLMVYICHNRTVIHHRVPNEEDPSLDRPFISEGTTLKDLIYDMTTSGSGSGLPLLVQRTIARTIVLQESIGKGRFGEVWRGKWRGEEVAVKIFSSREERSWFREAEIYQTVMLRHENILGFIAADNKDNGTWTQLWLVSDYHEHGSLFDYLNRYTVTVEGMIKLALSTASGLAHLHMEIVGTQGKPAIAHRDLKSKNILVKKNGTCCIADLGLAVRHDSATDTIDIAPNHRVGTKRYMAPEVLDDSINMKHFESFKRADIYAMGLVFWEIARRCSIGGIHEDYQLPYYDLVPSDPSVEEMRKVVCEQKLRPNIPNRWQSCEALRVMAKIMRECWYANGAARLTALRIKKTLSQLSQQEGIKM
Experiment: Enzyme Activity Inhibition: 1. Preparation of a 1× kinase buffer: 40 mM Tris (pH 7.5), 20 mM MgCl2, 0.10% BSA, 1 mM DTT.2. Compound preparation: The final detection concentration of the compound was 10 μM, which was prepared to a 100-fold concentration, i.e., 1 mM. 100 μL of the 100-fold compound was added in the second well of the 384-well plate, and 60 μL of 100% DMSO was added to the other wells. […] 50 nL of the compound was transferred to the reaction plate with echo.3. Kinase reaction: The kinase was added to a 1× kinase buffer to form a 2× enzyme solution. […] The polypeptide TGFbR1 (purchased from Signal Chem, catalog number T36-58) and ATP were added to a 1× kinase buffer to form a 2× substrate solution. The final concentration of the substrate solution was peptide TGFbR1 0.1 mg/mL, ATP 7 μM. 2.5 μL of the 2× enzyme solution was added to the 384-well reaction plate (there was already 50 nL of 100% DMSO dissolved compound), and a 1× kinase buffer was added to a negative control well. The reaction solution was incubated at room temperature for 10 minutes. 2.5 μL of 2× substrate solution was added to the 384-well reaction plate. The 384-well plate was covered and incubated at 30° C. for 1 hour. ADP-Glo reagent (purchased from Promege, catalog number v9102) was equilibrated to room temperature. 5 μL of ADP-Glo reagent was transferred to the reaction well of the 384-well plate to stop the reaction.4. Detection of reaction results: 10 μL of kinase detection reagent was transferred to each well, shaken for 1 minute, and let stand at room temperature for 30 minutes. The sample luminescence value was read at Synegy.

| IC50 [nM] | SMILES |
| --- | --- |
| 44 | Cc1cccc(/C=C\c2ccc3ncc(C(=O)NCCN4CCOCC4)n3c2)n1 |
| 8.5 | Cc1ccc(F)c(/C=C\c2ccc3ncc(C(N)=O)n3c2)n1 |
| 207 | CNC(=O)/C(=C/c1cccc(C)n1)c1ccc2ncc(C(N)=O)n2c1 |
| 372 | Cc1cccc(/C=C/c2ccc3ncc(C(N)=O)n3c2)n1 |
| 56 | CCOC(=O)c1cnc2ccc(/C=C\c3cccc(OC)n3)cn12 |
| 25 | Cc1cccc(/C=C\c2ccc3ncc(C#N)n3c2)n1 |
| 58 | Cc1cccc(/C=C(/C(=O)N2CCCCC2)c2ccc3ncc(C(N)=O)n3c2)n1 |
| 15 | COc1cccc(/C=C\c2ccc3ncc(C(N)=O)n3c2)n1 |
| 328 | Cc1cccc(/C=C(/C(N)=O)c2ccc3ncc(C(N)=O)n3c2)n1 |
| 7.4 | COC(=O)/C(=C/c1cccc(C)n1)c1ccc2ncc(C(N)=O)n2c1 |
| 33 | Cc1csc(/C=C\c2ccc3ncc(C(N)=O)n3c2)n1 |
| 4950 | Cc1cccc(/C=C(/C(=O)N2CCCCC2)c2ccc3ncc(C#N)n3c2)n1 |
| 21 | Cc1cccc(/C=C\c2ccc3ncc(-c4nnn[nH]4)n3c2)n1 |
